Assay results reported in patent publication US6727237B2, “Inhibitors of bacterial NAD synthetase” (priority 1998, dated 2004).

Molecular target: T1, bacterial NAD synthetase enzyme (Bacillus subtilis, UniProt P08164)
T1 sequence (P08164 2-272 limits assumed): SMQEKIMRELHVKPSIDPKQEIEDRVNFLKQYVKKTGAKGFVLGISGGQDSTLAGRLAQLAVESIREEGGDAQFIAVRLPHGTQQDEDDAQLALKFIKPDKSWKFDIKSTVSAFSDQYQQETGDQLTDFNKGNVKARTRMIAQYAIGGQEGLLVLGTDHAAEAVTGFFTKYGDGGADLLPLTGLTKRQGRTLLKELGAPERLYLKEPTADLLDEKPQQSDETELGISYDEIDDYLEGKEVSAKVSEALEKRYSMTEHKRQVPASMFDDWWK
Experiment: biochemical
Assay type: biochemical
Conditions: not given

SMILES	inhibition at 200 µM [%]
C[n+]1cccc(C(=O)OCCCOc2ccccc2C=CC(=O)c2ccccc2)c1 [compound 1066]	70

Same assay, conditions: compound at 0.1 mM (Table 314)

SMILES	% Inhibition [%]
COC(=O)c1cc2cc(OCc3ccccc3)ccc2n1CCCCCCCCOC(=O)Cc1ccc(N(C)C)cc1 [Compound 965]	8.48

Test system: Staphylococcus epidermitis
Experiment: Bacterial growth inhibition screen in LB media (absorbance 595 nm), percent inhibition
Conditions: S. epidermitis; concentration screened 10 uM

SMILES	% Inhibition [%]
CN(C)c1ccc(C(=O)OCCCCCn2ccc3cc([N+](=O)[O-])ccc32)cc1 [Compound 843]	2.20
O=C(OCCCCCCCCc1cc2cc([N+](=O)[O-])ccc2[nH]1)C(c1ccccc1)c1ccccc1 [Compound 726]	16.76
C[n+]1cc(C(=O)OCCCCCCCCn2ccc3cc(OCc4ccccc4)ccc32)cc2ccccc21 [Compound 829]	98.64
CC(C)c1ccc2[nH]c(CCCCOC(=O)c3cccnc3)cc2c1 [Compound 687]	14.44
O=C(OCCCCn1ccc2cc([N+](=O)[O-])ccc21)c1cnc2ccccc2c1 [Compound 830]	42.99
CC(C)c1ccc2[nH]c(CCCCCCCCOC(=O)c3cccnc3)cc2c1 [Compound 668]	3.07
O=C(OCCCCCCCc1cc2cc(Oc3ccccc3)ccc2[nH]1)c1cccnc1 [Compound 661]	39.31
O=C([O-])c1ccc[n+](CCCn2c(C(=O)O)cc3ccccc32)c1 [Compound 191]	46.32
O=C(OCCCCCCCCc1cc2ccc(C(F)(F)F)cc2[nH]1)c1cccnc1 [Compound 683]	9.26
Fc1cc(F)c2[nH]c(CCCCCCC[n+]3cccc4ccccc43)cc2c1 [Compound 412]	7.73
CC(C)c1ccc2[nH]c(CCCCCCCOC(=O)c3ccccc3-c3ccccc3)cc2c1 [Compound 631]	12.19
CC(C)c1ccc2[nH]c(CCCCCCCOC(=O)c3cccc(N(C)C)c3)cc2c1 [Compound 625]	7.77
CN(C)c1ccc(C(=O)OCCCCCCCCc2cc3cc([N+](=O)[O-])ccc3[nH]2)cc1 [Compound 727]	42.23
FC(F)(F)c1ccc2cc(CCCCCCC[n+]3cccc4ccccc43)[nH]c2c1 [Compound 400]	5.50
c1ccc2[nH]c(CCC[n+]3cccc4ccccc43)cc2c1 [Compound 390]	5.92
O=C(OCCCCCCCc1cc2cc(C(F)(F)F)ccc2[nH]1)C(c1ccccc1)c1ccccc1 [Compound 652]	2.52
COc1ccc2c(ccn2CCCCOC(=O)c2cc3ccccc3[n+](C)c2)c1 [Compound 820]	65.74
CC(=O)c1ccc2[nH]c(CCCCOC(=O)c3cccnc3)cc2c1 [Compound 690]	10.01
O=C(OCCCCCCCc1cc2cc(C(F)(F)F)ccc2[nH]1)c1ccccc1-c1ccccc1 [Compound 613]	1.36
O=C(OCCCCCCCc1cc2cc(C(=O)c3ccccc3)ccc2[nH]1)c1ccncc1 [Compound 709]	12.94
CN(C)c1cccc(C(=O)OCCCCCCCc2cc3cc(C(=O)c4ccccc4)ccc3[nH]2)c1 [Compound 643]	15.46
COC(=O)c1ccc2c(ccn2CCC[n+]2cccc(C(=O)OC)c2)c1 [Compound 171]	15.33
O=C(OCCCCCCCc1cc2cc(Oc3ccccc3)ccc2[nH]1)c1ccccc1-c1ccccc1 [Compound 622]	7.97
O=C(OCCCCCCCCc1cc2cc(C(=O)c3ccccc3)ccc2[nH]1)c1cccnc1 [Compound 680]	22.48
O=C(OCCCCCCCCc1cc2cc([N+](=O)[O-])ccc2[nH]1)c1ccccc1-c1ccccc1 [Compound 729]	8.24
CC(=O)c1ccc2[nH]c(CCCCCCCCOC(=O)c3ccncc3)cc2c1 [Compound 707]	3.61

SMILES	% Inhibition [%]
CC(=O)c1ccc2[nH]c(CCCCCCCOC(=O)c3cccc(N(C)C)c3)cc2c1 [Compound 634]	10.08
CC(C)c1ccc2[nH]c(CCCCCCCOC(=O)c3ccncc3)cc2c1 [Compound 703]	4.29
C[N+](C)(C)c1cccc(C(=O)OCCCCn2ccc3cc(OCc4ccccc4)ccc32)c1 [Compound 805]	50.87
O=C(OCCCn1ccc2cc([N+](=O)[O-])ccc21)c1cccnc1 [Compound 855]	49.58
C[n+]1cccc(C(=O)OCCCCCCCCCc2cc3cc([N+](=O)[O-])ccc3[nH]2)c1 [Compound 281]	84.23
O=C(OCCCCCCCCc1cc2cc(C(F)(F)F)ccc2[nH]1)c1cccnc1 [Compound 656]	2.59
CN(C)c1cccc(C(=O)OCCCCCCn2ccc3cc([N+](=O)[O-])ccc32)c1 [Compound 838]	17.65
C[n+]1cc(C(=O)OCCCCn2ccc3cc(OCc4ccccc4)ccc32)cc2ccccc21 [Compound 825]	83.13
CC(=O)c1ccc2[nH]c(CCCCCCCOC(=O)c3ccncc3)cc2c1 [Compound 706]	6.68
O=[N+]([O-])c1cc([N+](=O)[O-])c2[nH]c(CCCCC[n+]3cccc4ccccc43)cc2c1 [Compound 416]	2.09
O=C(OCCCCc1cc2ccc(C(F)(F)F)cc2[nH]1)c1cccnc1 [Compound 681]	4.22
CN(C)c1ccc(C(=O)OCCCCCCCc2cc3cc(C(=O)c4ccccc4)ccc3[nH]2)cc1 [Compound 646]	1.09
CN(C)c1ccc(C(=O)OCCCCCCCc2cc3cc(C(F)(F)F)ccc3[nH]2)cc1 [Compound 610]	33.51
O=C(OCCCCCCCc1cc2cc(C(=O)c3ccccc3)ccc2[nH]1)c1cccnc1 [Compound 694]	2.59
FC(F)(F)c1ccc2[nH]c(CCCCCC[n+]3cccc4ccccc43)cc2c1 [Compound 471]	14.07
CN(C)c1cccc(C(=O)OCCCCCCCc2cc3cc(Oc4ccccc4)ccc3[nH]2)c1 [Compound 616]	5.59
O=C(OCCCCc1cc2cc(C(=O)c3ccccc3)ccc2[nH]1)c1cccnc1 [Compound 693]	14.37
CN(C)c1ccc(C(=O)OCCCCCCCCCn2ccc3cc([N+](=O)[O-])ccc32)cc1 [Compound 847]	19.84
CC(C)c1ccc2[nH]c(CCCCCCCOC(=O)C(c3ccccc3)c3ccccc3)cc2c1 [Compound 664]	3.88
C[n+]1cccc(C(=O)OCCCCn2ccc3cc([N+](=O)[O-])ccc32)c1 [Compound 863]	4.72
COc1ccc2c(ccn2CCCCOC(=O)c2ccc([N+](C)(C)C)cc2)c1 [Compound 780]	4.78
c1ccc2[nH]c(CCCC[n+]3cccc4ccccc43)cc2c1 [Compound 391]	5.29
O=C(OCCCCCCCCc1cc2cc(Oc3ccccc3)ccc2[nH]1)c1cccnc1 [Compound 686]	22.14
O=C(OCCCCCCCCc1cc2cc(C(=O)c3ccccc3)ccc2[nH]1)c1ccncc1 [Compound 710]	6.95
CC(C)c1ccc2[nH]c(CCCCCCCCOC(=O)c3ccncc3)cc2c1 [Compound 704]	19.07
CC(=O)c1ccc2[nH]c(CCCCCCCCOC(=O)c3cccnc3)cc2c1 [Compound 674]	7.70

Same assay, conditions: S. epidermitis; concentration screened 100 uM

SMILES	% Inhibition [%]
CC(=O)c1ccc2[nH]c(CCCCCCCCOC(=O)c3ccccc3-c3ccccc3)cc2c1 [Compound 641]	8.10
CN(C)c1cccc(C(=O)OCCCCc2cc3cc(Oc4ccccc4)ccc3[nH]2)c1 [Compound 615]	11.81
O=C(OCCCCc1cc2cc(C(F)(F)F)ccc2[nH]1)C(c1ccccc1)c1ccccc1 [Compound 651]	13.51
CC(C)c1ccc2[nH]c(CCCCCCCCOC(=O)c3ccc(N(C)C)cc3)cc2c1 [Compound 629]	6.66
O=C(OCCCCc1cc2cc(C(F)(F)F)ccc2[nH]1)c1ccccc1-c1ccccc1 [Compound 612]	10.24
CC(=O)c1ccc2[nH]c(CCCCCCCCOC(=O)c3cccc(N(C)C)c3)cc2c1 [Compound 635]	7.47
CC(=O)c1ccc2[nH]c(CCCCOC(=O)C(c3ccccc3)c3ccccc3)cc2c1 [Compound 669]	11.24
CC(=O)c1ccc2[nH]c(CCCCOC(=O)c3cccc(N(C)C)c3)cc2c1 [Compound 633]	5.53
CN(C)c1cccc(C(=O)OCCCCc2cc3cc(C(F)(F)F)ccc3[nH]2)c1 [Compound 606]	9.17
CN(C)c1ccc(C(=O)OCCCCc2cc3cc(C(F)(F)F)ccc3[nH]2)cc1 [Compound 609]	7.35
O=C(OCCCCc1cc2cc(Oc3ccccc3)ccc2[nH]1)c1ccccc1-c1ccccc1 [Compound 621]	11.75
O=C(c1ccccc1)c1ccc2[nH]c(CCCCCCCCOC(=O)c3ccccc3-c3ccccc3)cc2c1 [Compound 650]	7.73
CC(C)c1ccc2[nH]c(CCCCCCCCOC(=O)c3cccc(N(C)C)c3)cc2c1 [Compound 626]	14.26
CC(C)c1ccc2[nH]c(CCCCOC(=O)c3cccc(N(C)C)c3)cc2c1 [Compound 624]	19.16
O=C(OCCCCCCCCc1cc2cc(Oc3ccccc3)ccc2[nH]1)c1ccccc1-c1ccccc1 [Compound 623]	34.17
CC(C)c1ccc2[nH]c(CCCCCCCCOC(=O)C(c3ccccc3)c3ccccc3)cc2c1 [Compound 665]	12.75
O=C(c1ccccc1)c1ccc2[nH]c(CCCCOC(=O)C(c3ccccc3)c3ccccc3)cc2c1 [Compound 675]	11.37
O=C(OCCCCc1cc2cc(Oc3ccccc3)ccc2[nH]1)C(c1ccccc1)c1ccccc1 [Compound 657]	37.12
